Test results published in patent US9175028B2, “Glycoside compound” (AJINOMOTO CO., INC., priority 2010, dated 2015).
Entries after “also recorded” stand apart in the source; their conditions may differ.

Experiments:
[1] = tested on: human colorectal cancer-derived cell line NCI-H716; test: GLP-1 secretion, GLP-1 concentration in supernatant by ELISA; type: cell-based; settings: for GLP-1 concentration in the supernatant compared to the DMSO treatment (control) group: 60 minutes, result in words (FIGS. 1-11); for fold induction at 100 µM / fold induction at 300 µM: Homo sapiens, NCI-H716, 1 h, GLP-1 concentration in supernatant against control group (0.1% DMSO) as 1, 60 minutes
Experimental: Subcultured human colorectal cancer-derived cell line NCI-H716 (ATCC) was plated on a poly-D-lysine coated 96-well plate at 1×10^5 cells per well. After culture at 37° C., 5% CO2 for 48 hours, the medium was substituted with a buffer (146 mM NaCl, 5 mM KCl, 1 mM MgSO4, 5.5 mM Glucose, 20 mM HEPES, 1.5 mM CaCl2, 0.2% BSA, pH 7.4), and dihydrocapsiate (DCT), dihydrocapsiate glycoside and structural analogs thereof (compounds 4, 12, 47, 27, 20, 18, 16, 30, 32, 32-3, 34, 35, 36, 24-2, 33, 14, 22, 23 and 24), each prepared to a given concentration with dimethyl sulfoxide (DMSO), were added. After treatment at 37° C., 5% CO2 for 60 minutes, the supernatant was recovered, and the concentration of GLP-1 in the supernatant was measured by the ELISA method. The strength of the activity of each compound is expressed against GLP-1 concentration of the control group (0.1% DMSO treatment group) as 1, and the compound showing higher GLP-1 concentration than the control group was evaluated as active.

[2] = tested on: human colorectal cancer-derived cell line NCI-H716; test: as above; type: cell-based; settings: result in words (FIG. 2)
C57BL/6J mice = test: food ingestion calories of mice fed test diets for 56 days; type: in vivo; settings: 0.459% (w/w) in high-fat diet, mouse, compared to normal diet, high-fat diet alone or high-fat diet added with DCT, result in words, listed as glycoside DCT
Experimental: Glycoside DCT was added at a proportion of 0.459% (w/w) to AIN-93 composition diet containing 30% lard (to be abbreviated as glycoside DCT diet or glycoside diet), and fed to mouse. […] As a control, AIN-93 composition diet containing 7% lard (to be abbreviated as normal diet), AIN-93 composition diet containing 30% lard (to be abbreviated as high-fat diet), and high-fat diet containing 0.3% (w/w) dihydrocapsiate (DCT) (to be abbreviated as DCT diet) were fed to the mouse.
The details of the test method are shown below. 7-week-old male C57BL/6J mice (n=46) (Charles River Laboratories) were acclimated for 2 weeks, divided into 4 groups such that they have the same average body weight, and each group was allowed to freely ingest a food having the composition shown in Table 2 for 56 days. The body weight and the food ingestion amount were measured every 3-4 days.

In the case of `COc1cc(COC(=O)CCCC/C=C/C(C)C)ccc1OC1OC(CO)C(O)C(O)C1O` [compound 20, O-[4-(β-D-glucopyranosyloxy)-3-methoxybenzyl]-8-methyl-6-nonenoic acid ester], the “GLP-1 concentration in the supernatant compared to the DMSO treatment (control) group” value [1] was “increased”, the fold induction at 100 µM [1] was 1.13 and the fold induction at 300 µM [1] was 1.56.
In the case of `CCCCCCCCCC(=O)OCc1ccc(OC2OC(CO)C(O)C(O)C2O)c(OC)c1` [compound 16, O-[4-(β-D-glucopyranosyloxy)-3-methoxybenzyl]-decanoic acid ester], the “GLP-1 concentration in the supernatant compared to the DMSO treatment (control) group” value [1] was “increased”, the fold induction at 100 µM [1] was 1.23 and the fold induction at 300 µM [1] was 3.25.
In the case of `COc1cc(CC(=O)OCCCCCCCC(C)C)ccc1OC1OC(CO)C(OC2OC(CO)C(O)C(O)C2O)C(O)C1O` [compound 22, O-8-methylnonyl-2-[4-(β-D-glucopyranosyl-(1→4)-β-D-glucopyranosyloxy)-3-methoxyphenyl]acetic acid ester], the “GLP-1 concentration in the supernatant compared to the DMSO treatment (control) group” value [1] was “increased”, the fold induction at 100 µM [1] was 1.87 and the fold induction at 300 µM [1] was 1.66.
In the case of `COc1cc(COC(=O)CCCC/C=C/C(C)C)ccc1OC1OC(CO)C(OC2OC(CO)C(O)C(O)C2O)C(O)C1O` [compound 35, O-[4-(β-D-glucopyranosyl-(1→4)-β-D-glucopyranosyloxy)-3-methoxybenzyl]-8-methyl-6-nonenoic acid ester], the “GLP-1 concentration in the supernatant compared to the DMSO treatment (control) group” value [1] was “increased”, the fold induction at 100 µM [1] was 1.14 and the fold induction at 300 µM [1] was 2.4.
`COc1cc(COC(=O)CCCCCC(C)C)ccc1OC1OC(CO)C(OC2OC(CO)C(O)C(O)C2O)C(O)C1O` [compound 36, O-[4-(β-D-glucopyranosyl-(1→4)-β-D-glucopyranosyloxy)-3-methoxybenzyl]-7-methyloctanoic acid ester] was tested, and the “GLP-1 concentration in the supernatant compared to the DMSO treatment (control) group” value [1] was “increased”, the fold induction at 100 µM [1] was 1.19 and the fold induction at 300 µM [1] was 2.41.
`COc1cc(CNC(=O)CCCCCCC(C)C)ccc1O[C@@H]1O[C@H](CO)[C@@H](O[C@@H]2O[C@H](CO)[C@@H](O)[C@H](O)[C@H]2O)[C@H](O)[C@H]1O` [compound 27, N-[4-(β-D-glucopyranosyl-(1→4)-β-D-glucopyranosyloxy)-3-methoxybenzyl]-8-methylnonanamide, reference compound] was tested, and the “GLP-1 concentration in the supernatant compared to the DMSO treatment (control) group” value [1] was “did not show GLP-1 secretion promoting activity”, the fold induction at 100 µM [1] was 0.66 and the fold induction at 300 µM [1] was 0.71.
With `COc1cc(COC(=O)CCCCCCC(C)C)ccc1OC1OC(CO)C(OC2OC(CO)C(O)C(O)C2O)C(O)C1O` [compound 12, O-[4-(β-D-glucopyranosyl-(1→4)-β-D-glucopyranosyloxy)-3-methoxybenzyl]-8-methylnonanoic acid ester] the “GLP-1 concentration in the supernatant compared to the DMSO treatment (control) group” value [1] was “increased in a compound concentration-dependent manner”, the fold induction at 100 µM [1] was 5.02 and the “GLP-1 concentration compared to the group treated with equimolar concentration of glucose or cellobiose” value [2] was “markedly high”.
With `COc1cccc(COC(=O)CCCCCCC(C)C)c1OC1OC(CO)C(OC2OC(CO)C(O)C(O)C2O)C(O)C1O` [compound 24, O-[2-(β-D-glucopyranosyl-(1→4)-β-D-glucopyranosyloxy)-3-methoxybenzyl]-8-methylnonanoic acid ester] the “GLP-1 concentration in the supernatant compared to the DMSO treatment (control) group” value [1] was “increased”, the fold induction at 100 µM [1] was 1.33 and the fold induction at 300 µM [1] was 9.5.
For `COc1cc(CCC(=O)OCCCCCCCC(C)C)ccc1OC1OC(CO)C(O)C(O)C1O` [compound 30, O-8-methylnonyl-3-[4-(β-D-glucopyranosyloxy)-3-methoxyphenyl]propionic acid ester], the “GLP-1 concentration in the supernatant compared to the DMSO treatment (control) group” value [1] was “increased”, the fold induction at 100 µM [1] was 0.93 and the fold induction at 300 µM [1] was 2.6.
`COc1ccc(COC(=O)CCCCCCC(C)C)cc1OC1OC(CO)C(O)C(O)C1O` [compound 34, O-[3-(β-D-glucopyranosyloxy)-4-methoxybenzyl]-8-methylnonanoic acid ester] was tested, and the “GLP-1 concentration in the supernatant compared to the DMSO treatment (control) group” value [1] was “increased”, the fold induction at 100 µM [1] was 1.29 and the fold induction at 300 µM [1] was 1.94.
`COc1cc(CO)ccc1O[C@@H]1O[C@H](CO)[C@@H](O[C@@H]2O[C@H](CO)[C@@H](O)[C@H](O)[C@H]2O)[C@H](O)[C@H]1O` [compound 14, 4-(β-D-glucopyranosyl-(1→4)-β-D-glucopyranosyloxy)-3-methoxybenzyl alcohol] was tested, and the “GLP-1 concentration in the supernatant compared to the DMSO treatment (control) group” value [1] was “increased”, the fold induction at 100 µM [1] was 1.07 and the fold induction at 300 µM [1] was 1.12.
For `COc1cc(COC(=O)CCCCCCC(C)C)ccc1OC1OC(CO)C(O)C(O)C1O` [compound 4, O-[4-(β-D-glucopyranosyloxy)-3-methoxybenzyl]-8-methylnonanoic acid ester], the “total ingested calories during the test period” value (C57BL/6J mice) was “suppress food ingestion calories; also recorded: significant decrease”, the “GLP-1 concentration in the supernatant compared to the DMSO treatment (control) group” value [1] was “increased in a compound concentration-dependent manner” and the fold induction at 100 µM [1] was 2.3. The “GLP-1 concentration compared to the group treated with equimolar concentration of glucose or cellobiose” value [2] was “markedly high”.
In the case of `COc1cc(COC(=O)CCCCCC(C)C)ccc1OC1OC(CO)C(O)C(O)C1O` [compound 18, O-[4-(β-D-glucopyranosyloxy)-3-methoxybenzyl]-7-methyloctanoic acid ester], the “GLP-1 concentration in the supernatant compared to the DMSO treatment (control) group” value [1] was “increased”, the fold induction at 100 µM [1] was 1.33 and the fold induction at 300 µM [1] was 1.85.
With `COc1cc(CNC(=O)CCCCCCC(C)C)ccc1O[C@@H]1O[C@H](CO)[C@@H](O)[C@H](O)[C@H]1O` [compound 47, N-[4-(β-D-glucopyranosyloxy)-3-methoxybenzyl]-8-methylnonanamide, reference compound] the “GLP-1 concentration in the supernatant compared to the DMSO treatment (control) group” value [1] was “did not show GLP-1 secretion promoting activity”, the fold induction at 100 µM [1] was 0.61 and the fold induction at 300 µM [1] was 0.78.
For `COc1cc(CCC(=O)OCCCCCCCC(C)C)ccc1OC1OC(CO)C(OC2OC(CO)C(O)C(O)C2O)C(O)C1O` [compound 32, O-8-methylnonyl-3-[4-(β-D-glucopyranosyl-(1→4)-β-D-glucopyranosyloxy)-3-methoxyphenyl]propionic acid ester], the “GLP-1 concentration in the supernatant compared to the DMSO treatment (control) group” value [1] was “increased”, the fold induction at 100 µM [1] was 1.24 and the fold induction at 300 µM [1] was 3.46.
In the case of `COc1cc(COC(=O)CCCCCCC(C)C)ccc1O` [DCT, dihydrocapsiate, reference compound], the “GLP-1 concentration in the supernatant compared to the DMSO treatment (control) group” value [1] was “did not show a similar change”.
For `COc1cc(CCOC(=O)CCCCCCC(C)C)ccc1OC1OC(CO)C(OC2OC(CO)C(O)C(O)C2O)C(O)C1O` [compound 23, O-[4-(β-D-glucopyranosyl-(1→4)-β-D-glucopyranosyloxy)-3-methoxyphenethyl]-8-methylnonanoic acid ester], the “GLP-1 concentration in the supernatant compared to the DMSO treatment (control) group” value [1] was “increased”, the fold induction at 100 µM [1] was 1.37 and the fold induction at 300 µM [1] was 10.3.
`COc1cccc(COC(=O)CCCCCCC(C)C)c1OC1OC(COC(C)=O)C(OC2OC(COC(C)=O)C(OC(C)=O)C(OC(C)=O)C2OC(C)=O)C(OC(C)=O)C1OC(C)=O` (centres unmarked) [compound 24-2] was tested, and the “GLP-1 concentration in the supernatant compared to the DMSO treatment (control) group” value [1] was “increased”, the fold induction at 100 µM [1] was 0.87 and the fold induction at 300 µM [1] was 1.15.
